# pIC50: −log10 of the molar value. Activity calls are given as the source filed them. The rule behind the calls is not given here.
# Tested on: Cell-based STAT3 reporter inhibition, counterscreen
# Assay: STAT3 inhibitors in reporter cells, dose response, counter-screen for STAT1 inhibitor project (AID 1409)
Compound,IC50,pIC50
Cc1cccc(/C=C(\c2nc3ccccc3[nH]2)S(=O)(=O)c2ccccc2)c1,20.3 µM (inactive),
CC1C(=O)NN=C1C(=O)N/N=C\C(Br)=C\c1ccccc1 (stereo not drawn),23.8 µM (inactive),
Cc1ccccc1NC(=O)C(=Cc1ccc(C(=O)O)cc1)C(=O)Nc1ccccc1C,> 55.7 µM (inactive),
Cc1ccc(C2=Nc3c(ccc4ccccc34)C(c3ccncc3)=NN2)cc1,> 55.7 µM (inactive),
CS(=O)(=O)c1nc(-c2ccc(F)cc2)cc(C(F)(F)F)n1,23.8 µM (inactive),
COc1ccc(-c2cc(C(F)(F)F)nc(S(=O)(=O)CCCC(=O)Nc3cccc(O)c3)n2)cc1OC,31 µM (inactive),
CN1CCN(Cc2nc3ccccc3c(=O)n2Cc2nc(-c3ccccc3F)cs2)CC1,> 55.7 µM (inactive),
COc1ccccc1-c1cc(C(F)(F)F)nc(S(=O)(=O)CCCC(=O)N2CCOCC2)n1,30.9 µM (inactive),
CS(=O)(=O)c1nc(-c2ccco2)cc(C(F)(F)F)n1,38 µM (inactive),
O=C(CSc1nc2ccccc2c(=O)[nH]1)c1ccc(O)cc1O,> 55.7 µM (inactive),
O=c1cc(CSc2nc3ccccc3c(=O)[nH]2)c2ccc(O)cc2o1,> 55.7 µM (inactive),
CCOC(=O)c1c(C)nc2sc3c(=O)n(-c4ccc(OC)cc4)nnc3c2c1-c1ccc(OC)cc1,> 55.7 µM (inactive),
COCC(C)NC(=O)CCS(=O)(=O)c1nc(-c2ccc(OC)cc2)cc(C(F)(F)F)n1 (stereo not drawn),> 55.7 µM (inactive),
CN1CCN(Cc2nc3ccccc3c(=O)n2Cc2nc(-c3cccc([N+](=O)[O-])c3)cs2)CC1,> 55.7 µM (inactive),
CCN(CC)S(=O)(=O)c1ccc(N2CCOCC2)c(NC(=O)c2cc(-c3ccccn3)nc3ccccc23)c1,,5.01
O=C(NNC(=O)c1cccc(S(=O)(=O)N2CCc3ccccc32)c1)c1ccccc1,15.9 µM (inactive),
Cc1ccc(-n2nc(C(=O)O)c3ccccc3c2=O)cc1C,> 55.7 µM (inactive),
O=C(c1ccc(Cl)cc1)N1CCN(c2ccnc3cc(Cl)ccc23)CC1,22 µM (inactive),
CCOC(=O)N1CCN(C(=O)c2ccc(CSc3ccc(Cl)cc3)cc2)CC1,16.5 µM (inactive),
COc1ccc(CNc2ncnc3cc(Cl)ccc23)cc1OC,> 18.6 µM (inactive),
COC(=O)CCS(=O)(=O)c1nc(-c2ccccc2)cc(C(F)(F)F)n1,25.5 µM (inactive),
COc1ccc(CCNC(=O)Cn2c(=O)n(-c3ccc(F)cc3)c(=O)c3sccc32)cc1OC,> 55.7 µM (inactive),
O=C(c1ccco1)N1CCN(c2ncnc3c2[nH]c2ccc(Br)cc23)CC1,25.6 µM (inactive),
COC(=O)C1=CN(Cc2ccc(OC)c(OC)c2)C=C(C(=O)OC)C1c1cccs1,> 55.7 µM (inactive),
CS(=O)(=O)c1nc(-c2ccccc2)cc(C(F)(F)F)n1,20.8 µM (inactive),
CCn1c(=O)c2cc(C(=O)N3CCCC3)sc2c2ccccc21,> 55.7 µM (inactive),
COc1ccc(CCNc2ncnc3cc(OC)c(OC)cc23)cc1OC,14.6 µM (inactive),

Compound,IC50,pIC50
COc1ccc(-c2cc(C(F)(F)F)nc(S(=O)(=O)CCCC(=O)Nc3cccnc3Cl)n2)cc1OC,32.6 µM (inactive),
Cc1cc(NC(=O)CCCS(=O)(=O)c2nc(-c3cccs3)cc(C(F)(F)F)n2)no1,> 55.7 µM (inactive),
CCOC(=O)C(=CNc1cc(C)nn1-c1ccccc1)C(=O)OCC,> 55.7 µM (inactive),
CC1(C)Cc2c(ccc3ccccc23)C2=C(C(=O)N3CCCC3)C(=O)C(=O)N21,> 55.7 µM (inactive),
Cn1nnnc1Sc1ncnc2scc(-c3ccc(F)cc3)c12,22.6 µM (inactive),
CCOC(=O)CCS(=O)(=O)c1nc(-c2ccccc2)cc(C(F)(F)F)n1,24.2 µM (inactive),
CCOc1cc(-c2noc(N)c2C#N)cc(OCC)c1OCC,> 55.7 µM (inactive),
CCn1c(O)c(/C=N/NC(=O)c2ccncc2)c(=O)n(CC)c1=S,> 55.7 µM (inactive),
CCOC(=O)N1CCN(C(=O)c2ccc(-n3c(=S)[nH]c4ccccc4c3=O)cc2)CC1,> 55.7 µM (inactive),
COc1ccccc1-c1cc(C(F)(F)F)nc(S(C)(=O)=O)n1,31.8 µM (inactive),
Cc1ccccc1-c1noc(N)c1C#N,> 55.7 µM (inactive),
Cc1ccc(S(=O)(=O)N2CCN(C(C(=O)Nc3ccc(F)cc3)c3ccccc3)CC2)cc1 (stereo not drawn),> 55.7 µM (inactive),
COc1ccc(-c2cc(C(F)(F)F)nc(S(=O)(=O)CCCC(=O)Nc3cc(C)on3)n2)cc1OC,24.8 µM (inactive),
Cc1ccc2[nH]c3c(N4CCN(Cc5ccccc5)CC4)ncnc3c2c1,16.2 µM (inactive),
COc1ccccc1-c1cc(C(F)(F)F)nc(S(=O)(=O)CCCC(=O)Nc2cccnc2Cl)n1,34.6 µM (inactive),
Cc1ccc(-c2csc3ncnc(Sc4nnc(CN5CCCCCC5=O)o4)c23)cc1,12.2 µM (inactive),
CCOC(=O)N1CCN(C(=O)/C=C/c2c(C)nn(-c3ccc(F)cc3)c2Cl)CC1,37.1 µM (inactive),
C#Cc1ccc([C@H]2C=C(C(=O)OCC=C)O[C@@H](OCC)[C@@H]2CCCO)cc1,> 55.7 µM (inactive),
CN1CCN(Cc2nc3ccccc3c(=O)n2Cc2nc(-c3ccc4ccccc4c3)cs2)CC1,49.2 µM (inactive),
Cc1ccc(C(=O)Nc2cccc(N(C)S(C)(=O)=O)c2)cc1S(=O)(=O)Nc1ccccc1,> 55.7 µM (inactive),
O=C(c1ccco1)N1CCN(c2ncnc3c2[nH]c2ccccc23)CC1,> 55.7 µM (inactive),
COc1ccc(-n2c(SCc3cccnc3)nc3c(c2=O)SCC3)cc1OC,> 55.7 µM (inactive),
Cn1c(C(=O)N2CCN(c3ccc([N+](=O)[O-])cc3)CC2)cc2c(=O)[nH]c3ccccc3c21,28.7 µM (inactive),
Cc1cc(=O)n(C(NC(=O)c2ccccc2)C(=O)c2ccccc2)cn1 (stereo not drawn),> 55.7 µM (inactive),
O=C(c1ccc2c(c1)N(Cc1ccccc1)C(=O)c1ccccc1S2)N1CCCC1,> 55.7 µM (inactive),
COc1ccccc1CNc1ncnc2cc(Cl)ccc12,> 55.7 µM (inactive),

# Reference: PubChem BioAssay AID1409 (The Scripps Research Institute Molecular Screening Center, 2008)
